Test results as given in patent US5198542A, “DNA encoding a pitvitary adenylate cyclase activating protein and use thereof” (Takeda Chemical Industries, Inc., priority 1989, dated 1993).
Read-outs that look alike come from different tables or passages of the source. Ends that are not written are not given here.

What was measured:
[1] = hypotensive activity in male Wistar rats under nembutal anesthesia; format: in vivo, rat
Method: Using male Wistar rats having a body weight of 350 g under nembutal anesthesia, the hypotensive activity was measured.

adenylate cyclase = conditions: rat pituicytes

Substance | hypotensive activity ([1]; dosage 0.3 n mole/kg) [mm Hg] | hypotensive activity ([1]; dosage 1.0 n mole/kg) [mm Hg] | hypotensive activity ([1]; dosage 3.0 n mole/kg) [mm Hg] | cAMP (M ± SEM) (adenylate cyclase; peptide 10^-7 M) [p mol/ml] | cAMP (M ± SEM) (adenylate cyclase; peptide 10^-8 M) [p mol/ml] | cAMP (M ± SEM) (adenylate cyclase; peptide 10^-9 M) [p mol/ml] | cAMP (M ± SEM) (adenylate cyclase; peptide 10^-10 M) [p mol/ml] | cAMP (M ± SEM) (adenylate cyclase; peptide 10^-11 M) [p mol/ml] | cAMP (M ± SEM) (adenylate cyclase; peptide 10^-12 M) [p mol/ml]
Syn.27p-NH2: synthesized 27-NH2, the 1st to 27th positions of mature PACAP38, formula (1") | 14.5 ± 3.1 | 51.9 ± 9.6 | 4.1 | 9.20 ± 0.20 | 9.20 ± 0.00 | 7.90 ± 0.30 | 4.00 ± 0.20 | 2.55 ± 0.15 | 2.05 ± 0.15
PACAP38 NH2: PACAP38 NH2 synthesized on p-methyl BHA resin according to the amino acid sequence of PACAP38 (Example 5) (HSDGIFTDSYSRYRKQMAVKKYLAAVLGKRYKQRVKNK-NH2; UniProt P18509 132-169, looked up) | 3.2 ± 1.9 | 17.4 ± 2.4 | 29.8 ± 3.6 |  |  |  |  |  | 
